Measured values taken from patent publication US11076595B2, “1-(n,n-disubstituted carbamoyl) 4-(substituted sulfonyl)triazolin-5-one derivative, 4-(n,n-disubstituted carbamoyl) 1-(substituted sulfonyl)triazolin-5-one derivative, and herbicide containing said derivative as active ingredient” (HOKKO CHEMICAL INDUSTRY CO., LTD., priority 2017, dated 2021).

Tests used:
Format in all cases: in vivo
Echinochloa crus-galli [1] = assay: Test Example 12: herbicidal effect test by treatment during growing period in paddy field; conditions: 120 g/10a; treatment seven days after sowing in flooded paddy pot; assessed 14 days after treatment
Summary of the method: (§1)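 Read-out: weed suppression (%) = (1 − treated/untreated mean dry weight) × 100, scored 14 days after treatment with two replications. Pots held puddled paddy soil, 30 seeds per species sown 0–1 cm, flooded ~3 cm. Post-emergence dropwise water application at 7 days after sowing, 120 g a.i./10 are.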

Lindernia pyxidaria [2] = assay: as above; conditions: 120 g/10a; treatment seven days after sowing in flooded paddy pot; assessed 14 days after treatment
Summary of the method: as §1

Monochoria vaginalis [3] = assay: as above; conditions: 120 g/10a; treatment seven days after sowing in flooded paddy pot; assessed 14 days after treatment
Summary of the method: as §1

Scirpus juncoides [4] = assay: as above; conditions: 120 g/10a; treatment seven days after sowing in flooded paddy pot; assessed 14 days after treatment
Summary of the method: as §1

Echinochloa crus-galli [5] = assay: Test Example 13: herbicidal effect test by soil treatment in upland field; conditions: 120 g/10a, 14 days after treatment
Summary of the method: (§2)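 Field alluvial soil in 36 cm^2 pots had 20 seeds of each weed mixed into its top 1 cm. One day after sowing, a water-diluted emulsifiable concentrate was sprayed onto the soil at 100 liter per 10 are (120 g active ingredient per 10 are), with two replicates. Weed suppression (%) was assessed after 14 days.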

crabgrass [6] = assay: as above; conditions: 120 g/10a, 14 days after treatment
Summary of the method: as §2

Amaranthus viridis [7] = assay: as above; conditions: 120 g/10a, 14 days after treatment
Summary of the method: as §2

Chenopodium album [8] = assay: as above; conditions: 120 g/10a, 14 days after treatment
Summary of the method: as §2

Echinochloa crus-galli [9] = assay: Test Example 11: herbicidal effect test by soil treatment in paddy field; conditions: 120 g/10a active ingredient, 14 days after treatment
Summary of the method: (§3)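 Puddled paddy soil with N:P:K 17:17:17 fertilizer in Wagner pots; 30 seeds per species sown at 0–1 cm, flooded to about 3 cm, kept in a glass greenhouse. Water-diluted emulsifiable concentrate dripped in immediately after sowing at 120 g a.i. per 10 are. Suppression from dry weight versus untreated at 14 days.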

Lindernia pyxidaria [10] = assay: as above; conditions: 120 g/10a active ingredient, 14 days after treatment
Summary of the method: as §3

Monochoria vaginalis [11] = assay: as above; conditions: 120 g/10a active ingredient, 14 days after treatment
Summary of the method: as §3

Scirpus juncoides [12] = assay: as above; conditions: 120 g/10a active ingredient, 14 days after treatment
Summary of the method: as §3

crabgrass [13] = assay: Test Example 14: herbicidal effect test by foliage treatment in upland field; conditions: 7 days after sowing, 120 g/10a, 14 days after treatment
Summary of the method: (§4)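 Dose: 120 g a.i. per 10 are, sprayed in 100 L water per 10 are onto pots seven days post-sowing in alluvial soil. After 14 days, weed dry weight relative to untreated plots gave suppression rate (%); duplicate plots per concentration.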

Chenopodium album [14] = assay: as above; conditions: 7 days after sowing, 120 g/10a, 14 days after treatment
Summary of the method: as §4

Echinochloa crus-galli [15] = assay: as above; conditions: 7 days after sowing, 120 g/10a, 14 days after treatment
Summary of the method: as §4

Amaranthus viridis [16] = assay: as above; conditions: 7 days after sowing, 120 g/10a, 14 days after treatment
Summary of the method: as §4

SMILES | Weed suppression rate (%) Echinochloa crus-galli (Echinochloa crus-galli [1]) [%] | Weed suppression rate (%) Lindemia pyxidaria (Lindernia pyxidaria [2]) [%] | Weed suppression rate (%) Monochoria vaginalis (Monochoria vaginalis [3]) [%] | Weed suppression rate (%) Scirpus juncoides (Scirpus juncoides [4]) [%] | herbicidal effect, Echinochloa crus-galli (Echinochloa crus-galli [5]) [%] | herbicidal effect, Crabgrass (crabgrass [6]) [%] | herbicidal effect, Amaranthus viridis (Amaranthus viridis [7]) [%] | herbicidal effect, Chenopodium album (Chenopodium album [8]) [%] | Weed suppression rate (%) Echinochloa crus-galli (Echinochloa crus-galli [9]) [%] | Weed suppression rate (%) Lindemia pyxidaria (Lindernia pyxidaria [10]) [%] | Weed suppression rate (%) Monochoria vaginalis (Monochoria vaginalis [11]) [%] | Weed suppression rate (%) Scirpus juncoides (Scirpus juncoides [12]) [%] | herbicidal effect, Crabgrass (crabgrass [13]) [%] | herbicidal effect, Chenopodium album (Chenopodium album [14]) [%] | herbicidal effect, Echinochloa crus-galli (Echinochloa crus-galli [15]) [%] | herbicidal effect, Amaranthus viridis (Amaranthus viridis [16]) [%]
CC(C)N(C(=O)n1cnn(S(C)(=O)=O)c1=O)c1ccc(Cl)cn1 [Compound 11-38] | 100 | 90 | 80 | 90 | 90 | 90 | 0 | 40 | 100 | 80 | 70 | 70 | 90 | 0 | 90 | 0
CC(C)N(C(=O)n1cnn(S(=O)(=O)C(C)C)c1=O)c1ncc(Cl)cc1Cl [Compound 11-86] | 90 | 90 | 90 | 90 | 80 | 90 | 90 | 80 | 90 | 80 | 80 | 90 | 90 | 80 | 80 | 90
CC(C)N(C(=O)n1cnn(S(=O)(=O)CCl)c1=O)c1ccc(F)cc1F [Compound 11-109] | 100 | 100 | 90 | 90 | 100 | 100 | 90 | 100 | 100 | 100 | 90 | 90 | 90 | 40 | 90 | 40
Cc1cc(C)c(S(=O)(=O)n2ncn(C(=O)N(c3ccc(F)cc3Cl)C(C)C)c2=O)c(C)c1 [Compound 11-870] | 90 | 80 | 80 | 90 | 80 | 90 | 90 | 80 | 90 | 80 | 80 | 90 | 90 | 80 | 80 | 90
CC(C)N(C(=O)n1cnn(S(=O)(=O)C2CCOCC2)c1=O)c1ccc(F)cc1F [Compound 11-1109] | 90 | 80 | 80 | 90 | 100 | 100 | 100 | 100 | 90 | 80 | 80 | 90 | 90 | 80 | 80 | 90
CC(C)N(C(=O)n1cnn(S(=O)(=O)c2cccs2)c1=O)c1ccc(F)cc1Cl [Compound 11-1029] | 90 | 80 | 80 | 90 | 80 | 90 | 90 | 80 | 90 | 80 | 80 | 90 | 90 | 80 | 80 | 90
COc1ccc(S(=O)(=O)n2ncn(C(=O)N(c3c(F)cc(F)cc3F)C(C)C)c2=O)cc1 [Compound 11-1155] | 100 | 80 | 90 | 90 | 90 | 90 | 30 | 30 | 100 | 100 | 80 | 100 | 100 | 60 | 90 | 30
CC(C)N(C(=O)n1cnn(S(=O)(=O)c2cccs2)c1=O)c1ccc(F)cc1F [Compound 11-1022] | 90 | 90 | 90 | 90 | 100 | 100 | 70 | 100 | 100 | 100 | 90 | 100 | 70 | 40 | 90 | 0
CC(C)N(C(=O)n1cnn(S(=O)(=O)C2CCC2)c1=O)c1ccc(F)cc1F [Compound 11-258] | 90 | 90 | 90 | 90 | 100 | 100 | 100 | 100 | 100 | 100 | 100 | 100 | 90 | 80 | 80 | 90
